Drawing on PubChem BioAssay AID216 (DTP/NCI, 2004), this text covers T/C for 13 compounds.

In this assay the test system is BDF1 mice, P288 leukemia ip, survival T/C. Put plainly: NCI In Vivo Anticancer Drug Screen. Data for tumor model P288 Lymphocytic Leukemia (intraperitoneal) in B6D2F1 (BDF1) mice. Particulars: endpoint: survival time, mean or median, higher = longer survival. How it is done: The antitumor activity of compounds was measured in mice bearing transplantable tumors. Survival or tumor size were measured and the results are expressed as the measurement made in the treated group (T) divided by the measurement made in the vehicle treated control group (C). The tumor model used in this assay is P288 Lymphocytic Leukemia (intraperitoneal) in B6D2F1 (BDF1) mice

The mark [1] stands for this setting: dose: 25.0 mg/kg/injection, schedule: Q01DX Z (ip), vehicle: carboxymethylcellulose (CMC).
Where [2] appears, read: dose: 50.0 mg/kg/injection, schedule: Q01DX Z (ip), vehicle: carboxymethylcellulose (CMC).
The mark [3] stands for this setting: dose: 100.0 mg/kg/injection, schedule: Q01DX Z (ip), vehicle: carboxymethylcellulose (CMC).
The mark [4] stands for this setting: dose: 200.0 mg/kg/injection, schedule: Q01DX Z (ip), vehicle: carboxymethylcellulose (CMC).
[5] abbreviates: dose: 62.5 mg/kg/injection, schedule: Q01DX010 (ip), vehicle: saline.
The mark [6] stands for this setting: dose: 125.0 mg/kg/injection, schedule: Q01DX010 (ip), vehicle: saline.
Setting [7] is: dose: 6.25 mg/kg/injection, schedule: Q01DX Z (ip), vehicle: carboxymethylcellulose (CMC).
[8] abbreviates: dose: 12.5 mg/kg/injection, schedule: Q01DX Z (ip), vehicle: carboxymethylcellulose (CMC).
[9] abbreviates: dose: 60.0 mg/kg/injection, schedule: Q01DX010 (ip), vehicle: saline.
The mark [10] stands for this setting: dose: 120.0 mg/kg/injection, schedule: Q01DX010 (ip), vehicle: saline.

Where “and” joins values, the source holds several entries; their conditions need not be identical. Equal entries are not always repeated. Toxic doses and inconclusive results are not listed. Numbered stars: 1 amine (or outer) side, 2 acyl side, 3 side chain; on linkers, the order of the positions; unused ones are H or OH. Bridge positions count the residues as written; N and C are the ends. Square brackets hold non-standard residues; d marks the D form. Peptide text beside a SMILES is read from it. I, II: the chains in the order shown. Actinocin(9to1) = Cc1c2oc3c(C)ccc(C(=O)[*:1])c3nc-2c(C(=O)[*:2])c(N)c1=O; aThr = C[C@H](O)[C@H](N)C(=O)O; NMeV = CN[C@H](C(=O)O)C(C)C; Sar = CNCC(=O)O

On to `O=C(Nc1ccc(C2=NCCN2)cc1)c1cccc(C(=O)Nc2ccc(C3=NCCN3)cc2)c1`, for which the T/C by setting is: (dose: 2.4 mg/kg/injection, schedule: Q01DX Z (ip), vehicle: carboxymethylcellulose (CMC)) 101 % of control; (dose: 4.7 mg/kg/injection, schedule: Q01DX Z (ip), vehicle: carboxymethylcellulose (CMC)) 92 % of control; (dose: 9.4 mg/kg/injection, schedule: Q01DX Z (ip), vehicle: carboxymethylcellulose (CMC)) 105 % of control; (dose: 16.0 mg/kg/injection, schedule: Q01DX010 (ip), vehicle: saline) 211 % of control and 262 % of control; (dose: 18.8 mg/kg/injection, schedule: Q01DX Z (ip), vehicle: carboxymethylcellulose (CMC)) 161 % of control; (dose: 32.0 mg/kg/injection, schedule: Q01DX010 (ip), vehicle: saline) 255 % of control and 375 % of control. Also, the T/C runs as follows: (dose: 37.5 mg/kg/injection, schedule: Q01DX Z (ip), vehicle: carboxymethylcellulose (CMC)) 230 % of control; (dose: 64.0 mg/kg/injection, schedule: Q01DX010 (ip), vehicle: saline) 333 % of control and 375 % of control; (dose: 75.0 mg/kg/injection, schedule: Q01DX Z (ip), vehicle: carboxymethylcellulose (CMC)) 112 % of control; (dose: 128.0 mg/kg/injection, schedule: Q01DX010 (ip), vehicle: saline) 268 % of control and 333 % of control.

With `C[C@@H]1C[C@H]2CC[C@H](O2)[C@H](C)C(=O)O[C@@H](C)C[C@@H]2CC[C@@H](O2)[C@@H](C)C(=O)O[C@H](C)C[C@H]2CC[C@H](O2)[C@H](C)C(=O)O[C@@H](C)C[C@@H]2CC[C@@H](O2)[C@@H](C)C(=O)O1`, the T/C under setting [1] is 98 % of control, the T/C under setting [2] is 96 % of control, the T/C under setting [3] was 120 % of control and the T/C under setting [4] was 111 % of control.

For `c1ccc(CCSc2ncnc3nc[nH]c23)cc1`, the T/C runs as follows: under setting [5], 100 % of control; under setting [6], 100 % of control; (dose: 250.0 mg/kg/injection, schedule: Q01DX010 (ip), vehicle: saline) 122 % of control and 100 % of control; (dose: 500.0 mg/kg/injection, schedule: Q01DX010 (ip), vehicle: saline) 105 % of control and 122 % of control.

In the case of `CCCSc1ncnc2nc[nH]c12`, the T/C is 113 % of control under setting [7]; 105 % of control under setting [8]; 88 % of control (dose: 31.3 mg/kg/injection, schedule: Q01DX010 (ip), vehicle: saline); 115 % of control under setting [2]; 94 % of control under setting [5]; 88 % of control under setting [6].

Regarding `Nc1ncnc2c1ccn2C1OC(CO)C(O)C1O` (configuration not stated), the T/C runs as follows: (dose: 0.31 mg/kg/injection, schedule: Q01DX Z (ip), vehicle: carboxymethylcellulose (CMC)) 108 % of control and 92 % of control; (dose: 0.63 mg/kg/injection, schedule: Q01DX Z (ip), vehicle: carboxymethylcellulose (CMC)) 112 % of control and 93 % of control; (dose: 1.25 mg/kg/injection, schedule: Q01DX Z (ip), vehicle: carboxymethylcellulose (CMC)) 90 % of control; (dose: 2.5 mg/kg/injection, schedule: Q01DX Z (ip), vehicle: carboxymethylcellulose (CMC)) 106 % of control.

Regarding `O=c1[nH]c(=O)n(C2CC(O)C(CO)O2)cc1I` (configuration not stated), the T/C is, setting by setting: (dose: 63.0 mg/kg/injection, schedule: Q01DX Z (ip), vehicle: carboxymethylcellulose (CMC)) 104 % of control; (dose: 250.0 mg/kg/injection, schedule: Q01DX Z (ip), vehicle: carboxymethylcellulose (CMC)) 124 % of control; (dose: 1000.0 mg/kg/injection, schedule: Q01DX010 (ip), vehicle: saline) 116 % of control.

Take `O=C(Nc1ccc(NC(=O)Nc2cccc(C3=NCCN3)c2)cc1)Nc1cccc(C2=NCCN2)c1`: the T/C is 163 % of control and 168 % of control under setting [9]; 173 % of control and 210 % of control under setting [10]; 221 % of control (dose: 240.0 mg/kg/injection, schedule: Q01DX010 (ip), vehicle: saline); 152 % of control (dose: 480.0 mg/kg/injection, schedule: Q01DX010 (ip), vehicle: saline).

For the compound `C[N+](C)(C)c1ncnc2nc[nH]c12`, the T/C is 98 % of control (dose: 0.4 mg/kg/injection, schedule: Q01DX Z (ip), vehicle: carboxymethylcellulose (CMC)); 94 % of control (dose: 0.8 mg/kg/injection, schedule: Q01DX Z (ip), vehicle: carboxymethylcellulose (CMC)); 98 % of control (dose: 1.6 mg/kg/injection, schedule: Q01DX Z (ip), vehicle: carboxymethylcellulose (CMC)); 98 % of control (dose: 3.1 mg/kg/injection, schedule: Q01DX Z (ip), vehicle: carboxymethylcellulose (CMC)); 88 % of control and 100 % of control (dose: 15.0 mg/kg/injection, schedule: Q01DX010 (ip), vehicle: saline); 100 % of control (dose: 30.0 mg/kg/injection, schedule: Q01DX010 (ip), vehicle: saline). In addition, the T/C was 100 % of control under setting [9] and 100 % of control under setting [10].

For the compound `C[C@]12CC[C@H](OC3OC(CO)C(O)C(O)C3O)C[C@H]1CC[C@@H]1[C@@H]2CC[C@]2(C)[C@@H](C3=CCOC3=O)CC[C@]12O` (some centres not stated), the T/C reads like this: (dose: 0.12 mg/kg/injection, schedule: Q01DX Z (ip), vehicle: saline) 97 % of control; (dose: 0.25 mg/kg/injection, schedule: Q01DX Z (ip), vehicle: saline) 97 % of control; (dose: 0.5 mg/kg/injection, schedule: Q01DX Z (ip), vehicle: saline) 101 % of control and 98 % of control; (dose: 1.0 mg/kg/injection, schedule: Q01DX Z (ip), vehicle: saline) 104 % of control and 110 % of control; (dose: 2.0 mg/kg/injection, schedule: Q01DX Z (ip), vehicle: saline) 105 % of control and 107 % of control; (dose: 4.0 mg/kg/injection, schedule: Q01DX Z (ip), vehicle: saline) 121 % of control and 94 % of control.

Regarding `N#C[C@@H]1C2C=CC(CC2)[C@H]1C#N`, the T/C is, setting by setting: (dose: 0.25 mg/kg/injection, schedule: Q01DX010 (ip), vehicle: saline) 89 % of control; (dose: 63.0 micrograms/kg/injection, schedule: Q01DX010 (ip), vehicle: saline) 105 % of control; (dose: 125.0 micrograms/kg/injection, schedule: Q01DX010 (ip), vehicle: saline) 105 % of control; (dose: 500.0 micrograms/kg/injection, schedule: Q01DX010 (ip), vehicle: saline) 111 % of control.

For the compound `CN(C)c1ccc(Nc2c3ccccc3nc3ccccc23)cc1`, the T/C by setting is: under setting [7], 115 % of control; under setting [8], 105 % of control; under setting [1], 112 % of control; (dose: 36.0 mg/kg/injection, schedule: Q01DX010 (ip), vehicle: saline) 100 % of control; under setting [2], 123 % of control and 98 % of control; (dose: 54.0 mg/kg/injection, schedule: Q01DX010 (ip), vehicle: saline) 111 % of control. Moreover, the T/C under setting [3] is 117 % of control, the T/C under setting [10] was 88 % of control and the T/C under setting [4] is 92 % of control.

In the case of `Cn1cnc([N+](=O)[O-])c1Sc1ncnc2nc[nH]c12`, the T/C runs as follows: under setting [8], 104 % of control; under setting [1], 112 % of control; under setting [2], 114 % of control; under setting [3], 98 % of control.

With `Cc1c2oc3c(C)ccc(C(=O)N[C@@H]4C(=O)N[C@H](C(C)C)C(=O)N5CCC[C@H]5C(=O)N(C)CC(=O)N(C)[C@@H](C(C)C)C(=O)O[C@H]4C)c3nc-2c(C(=O)N[C@@H]2C(=O)N[C@H](C(C)C)C(=O)N3CCC[C@H]3C(=O)N(C)CC(=O)N(C)[C@@H](C(C)C)C(=O)O[C@H]2C)c(N)c1=O` (I: [aThr][dV]P[Sar][NMeV] / II: [aThr][dV]P[Sar][NMeV]; ester I:1-I:C, II:1-II:C; linker I:N-II:N via Actinocin(9to1)), the T/C (dose: 0.05 mg/kg/injection, schedule: Q01DX010 (ip), vehicle: other) is 155 % of control.
